Calls of active or inactive are those of the source. The rule behind the calls is not given here.
Key:
PANC-1 [1] = experiment: Induction of DNA damage in human PANC-1 cells assessed as decrease in RAD51 level at 2 uM in presence of JQ1 by Western blot analysis; format: functional, cell-based
PANC-1 [2] = experiment: Induction of cell cycle arrest in human PANC-1 cells assessed as accumulation at G1 phase at 0.6 uM incubated for 24 hrs by PI staining based flow cytometry (reference value: 51.70 %); format: functional
PANC-1 [3] = experiment: Induction of cell cycle arrest in human PANC-1 cells assessed as accumulation at S phase at 0.6 uM incubated for 24 hrs by PI staining based flow cytometry (reference value: 38.94 %); format: functional
PANC-1 [4] = experiment: Induction of cell cycle arrest in human PANC-1 cells assessed as accumulation at G1 phase at 1.2 uM incubated for 24 hrs by PI staining based flow cytometry (reference value: 51.70 %); format: functional
PANC-1 [5] = experiment: Induction of cell cycle arrest in human PANC-1 cells assessed as accumulation at G2 phase at 1.2 uM incubated for 24 hrs by PI staining based flow cytometry (reference value: 9.36 %); format: functional
PANC-1 [6] = experiment: Induction of cell cycle arrest in human PANC-1 cells assessed as accumulation at G2 phase at 2.5 uM incubated for 24 hrs by PI staining based flow cytometry (reference value: 9.36 %); format: functional
PANC-1 [7] = experiment: Induction of cell cycle arrest in human PANC-1 cells assessed as accumulation at S phase at 5 uM incubated for 24 hrs by PI staining based flow cytometry (reference value: 38.94 %); format: functional
PANC-1 [8] = experiment: Induction of cell cycle arrest in human PANC-1 cells assessed as accumulation at G2 phase at 5 uM incubated for 24 hrs by PI staining based flow cytometry (reference value: 9.36 %); format: functional
PANC-1 [9] = experiment: Induction of cell cycle arrest in human PANC-1 cells assessed as accumulation at G1 phase at 10 uM incubated for 24 hrs by PI staining based flow cytometry (reference value: 51.70 %); format: functional
PANC-1 [10] = experiment: Induction of cell cycle arrest in human PANC-1 cells assessed as accumulation at G2 phase at 10 uM incubated for 24 hrs by PI staining based flow cytometry (reference value: 9.36 %); format: functional
PANC-1 [11] = experiment: Induction of cell cycle arrest in human PANC-1 cells assessed as accumulation at G1 phase at 2 uM incubated for 24 hrs in presence of JQ1 by PI staining based flow cytometry (reference value: 51.70 %); format: functional
PANC-1 [12] = experiment: Induction of cell cycle arrest in human PANC-1 cells assessed as accumulation at G0/G1 phase at 2 uM incubated for 24 hrs in presence of JQ1 by PI staining based flow cytometry relative to control; format: functional
PANC-1 [13] = experiment: Induction of apoptosis in human PANC-1 cells assessed as early apoptotic cells at 0.6 uM incubated for 48 hrs by Annexin V-FITC/PI staining based flow cytometry (reference value: 1.41 %); format: functional
PANC-1 [14] = experiment: Induction of apoptosis in human PANC-1 cells assessed as viable cells at 1.2 uM incubated for 48 hrs by Annexin V-FITC/PI staining based flow cytometry (reference value: 91.64 %); format: functional; conditions: read-out: Activity
PANC-1 [15] = experiment: Induction of apoptosis in human PANC-1 cells assessed as early apoptotic cells at 1.2 uM incubated for 48 hrs by Annexin V-FITC/PI staining based flow cytometry (reference value: 1.41 %); format: functional
PANC-1 [16] = experiment: Induction of apoptosis in human PANC-1 cells assessed as necrotic cells at 1.2 uM incubated for 48 hrs by Annexin V-FITC/PI staining based flow cytometry (reference value: 3.09 %); format: functional
PANC-1 [17] = experiment: Induction of apoptosis in human PANC-1 cells assessed as viable cells at 5 uM incubated for 48 hrs by Annexin V-FITC/PI staining based flow cytometry (reference value: 91.64 %); format: functional; conditions: read-out: Activity
PANC-1 [18] = experiment: Induction of apoptosis in human PANC-1 cells assessed as necrotic cells at 5 uM incubated for 48 hrs by Annexin V-FITC/PI staining based flow cytometry (reference value: 3.09 %); format: functional
PANC-1 [19] = experiment: Induction of apoptosis in human PANC-1 cells assessed as late apoptotic cells at 2 uM incubated for 48 hrs in presence of JQ1 by Annexin V-FITC/PI staining based flow cytometry (reference value: 3.87 %); format: functional
PANC-1 [20] = experiment: Antitumor activity against human PANC-1 cells xenografted in BALB/c mouse assessed as reduction in tumor growth at 40 mg/kg, ip for 4 weeks administered for 5 days consecutively and 2 days without treatment on every week in presence of JQ1; format: functional, organism-based
PANC-1 [21] = experiment: Antitumor activity against human PANC-1 cells xenografted in BALB/c mouse assessed as inhibition of tumor volume at 40 mg/kg, ip for 4 weeks administered for 5 days consecutively and 2 days without treatment on every week in presence of JQ1; format: functional, organism-based
PANC-1 [22] = experiment: Antitumor activity against human PANC-1 cells xenografted in BALB/c mouse assessed as inhibition of tumor weight at 40 mg/kg, ip for 4 weeks administered for 5 days consecutively and 2 days without treatment on every week in presence of JQ1; format: functional, organism-based
[23] = Toxicity in BALB/c mouse xenografted with human PANC-1 cells assessed as animal mortality at 40 mg/kg, ip for 4 weeks administered for 5 days consecutively and 2 days without treatment on every week; format: organism-based; conditions: in vivo, 672 h
[24] = Toxicity in BALB/c mouse xenografted with human PANC-1 cells assessed as body weight loss at 40 mg/kg, ip for 4 weeks administered for 5 days consecutively and 2 days without treatment on every week in presence of JQ1; format: organism-based; conditions: in vivo, 672 h
[25] = Toxicity in BALB/c mouse xenografted with human PANC-1 cells assessed as pathological changes in heart at 40 mg/kg, ip for 4 weeks administered for 5 days consecutively and 2 days without treatment on every week by H and E staining based analysis; format: organism-based; conditions: in vivo, 672 h
[26] = Toxicity in BALB/c mouse xenografted with human PANC-1 cells assessed as pathological changes in heart at 40 mg/kg, ip for 4 weeks administered for 5 days consecutively and 2 days without treatment on every week in presence of JQ1 by H and E staining based analysis; format: organism-based; conditions: in vivo, 672 h
[27] = Toxicity in BALB/c mouse xenografted with human PANC-1 cells assessed as pathological changes in lung at 40 mg/kg, ip for 4 weeks administered for 5 days consecutively and 2 days without treatment on every week in presence of JQ1 by H and E staining based analysis; format: organism-based; conditions: in vivo, 672 h
[28] = Toxicity in BALB/c mouse xenografted with human PANC-1 cells assessed as pathological changes in liver at 40 mg/kg, ip for 4 weeks administered for 5 days consecutively and 2 days without treatment on every week by H and E staining based analysis; format: organism-based; conditions: in vivo, 672 h
[29] = Toxicity in BALB/c mouse xenografted with human PANC-1 cells assessed as pathological changes in kidney at 40 mg/kg, ip for 4 weeks administered for 5 days consecutively and 2 days without treatment on every week by H and E staining based analysis; format: organism-based; conditions: in vivo, 672 h
[30] = Toxicity in BALB/c mouse xenografted with human PANC-1 cells assessed as pathological changes in kidney at 40 mg/kg, ip for 4 weeks administered for 5 days consecutively and 2 days without treatment on every week in presence of JQ1 by H and E staining based analysis; format: organism-based; conditions: in vivo, 672 h
[31] = Toxicity in BALB/c mouse xenografted with human PANC-1 cells assessed as drug tolerance at 40 mg/kg, ip for 4 weeks administered for 5 days consecutively and 2 days without treatment on every week; format: organism-based; conditions: in vivo, 672 h

With `O=C1CCC(N2C(=O)c3cccc(NC(=O)CNCCCCCCCCCCC(=O)N4CCN(C(=O)c5cc(Cc6n[nH]c(=O)c7ccccc67)ccc5F)CC4)c3C2=O)C(=O)N1` (configuration not stated) the Activity (PANC-1 [1]) was “Active”, the Activity (PANC-1 [2]) was 45.34% and the Activity (PANC-1 [3]) was 44.14%. The Activity (PANC-1 [4]) was 45.72%, the Activity (PANC-1 [5]) was 11.34% and the Activity (PANC-1 [6]) was 12.98%. It also gave an Activity (PANC-1 [7]) of 42.71%, an Activity (PANC-1 [8]) of 13.63% and an Activity (PANC-1 [9]) of 43.14%. The Activity (PANC-1 [10]) was 15.94%, the Activity (PANC-1 [11]) was 50.25% and the Activity (PANC-1 [12]) was 50.25%. It also gave an Activity (PANC-1 [13]) of 3.9%, a viability at 1.2 µM (PANC-1 [14]) of 89.8% and an Activity (PANC-1 [15]) of 3.8%. The Activity (PANC-1 [16]) was 2.74%, the viability at 5 µM (PANC-1 [17]) was 86.7% and the Activity (PANC-1 [18]) was 4.28%. The Activity (PANC-1 [19]) was 21.9%, the Activity (PANC-1 [20]) was “Active” and the inhibition (PANC-1 [21]) was “Active”. For the same molecule, the inhibition (PANC-1 [22]) was “Active”, the Activity [23] was “Non-toxic” and the Activity [24] was “Non-toxic”. The Activity [25] was “Non-toxic”, the Activity [26] was “Non-toxic” and the Activity [27] was “Non-toxic”. The Activity [28] was “Non-toxic”, the Activity [29] was “Non-toxic” and the Activity [30] was “Non-toxic”. For the same molecule, the Activity [31] was “Non-toxic”.

In the case of `O=C(c1cc(Cc2n[nH]c(=O)c3ccccc23)ccc1F)N1CCN(C(=O)C2CC2)CC1` [OLAPARIB], the Activity (PANC-1 [1]) is reported as “Active”, the Activity (PANC-1 [2]) is reported as 46.78% and the Activity (PANC-1 [3]) is reported as 42.54%. For the same molecule, the Activity (PANC-1 [4]) was 46.59%, the Activity (PANC-1 [5]) was 12.41% and the Activity (PANC-1 [6]) was 14.19%. For the same molecule, the Activity (PANC-1 [7]) was 43.96%, the Activity (PANC-1 [8]) was 15.24% and the Activity (PANC-1 [9]) was 35.31%. It also gave an Activity (PANC-1 [10]) of 19.74%, an Activity (PANC-1 [11]) of 58.42% and an Activity (PANC-1 [12]) of 12.43%. For the same molecule, the Activity (PANC-1 [13]) was 2.25%, the viability at 1.2 µM (PANC-1 [14]) was 89.1% and the Activity (PANC-1 [15]) was 2.88%. The Activity (PANC-1 [16]) was 4.05%, the viability at 5 µM (PANC-1 [17]) was 88.2% and the Activity (PANC-1 [18]) was 2.91%. For the same molecule, the Activity (PANC-1 [19]) was 21.52%, the Activity (PANC-1 [20]) was “Active” and the inhibition (PANC-1 [21]) was “Active”. The inhibition (PANC-1 [22]) was “Active”, the Activity [23] was “Non-toxic” and the Activity [24] was “Toxic”. The Activity [25] was “Non-toxic”, the Activity [26] was “Non-toxic” and the Activity [27] was “Non-toxic”. The Activity [28] was “Non-toxic”, the Activity [29] was “Non-toxic” and the Activity [30] was “Non-toxic”. For the same molecule, the Activity [31] was “Non-toxic”.

Reference: ChEMBL document CHEMBL6096630, “Enhancing therapeutic efficacy in homologous recombination-proficient pancreatic cancer via the combination of PARP1-PROTAC and a BRD4 inhibitor” (Bioorg Med Chem, 2024)
